Legend:
[1] = molecular target: T1, Alkaline phosphatase, tissue-nonspecific isozyme (Bos taurus, UniProt P09487); assay: Inhibition of bovine TNAP using CDP-star as substrate preincubated for 5 to 7 mins followed by substrate addition measured after 15 mins by spectrophotometric method
T1 sequence (P09487 whole entry): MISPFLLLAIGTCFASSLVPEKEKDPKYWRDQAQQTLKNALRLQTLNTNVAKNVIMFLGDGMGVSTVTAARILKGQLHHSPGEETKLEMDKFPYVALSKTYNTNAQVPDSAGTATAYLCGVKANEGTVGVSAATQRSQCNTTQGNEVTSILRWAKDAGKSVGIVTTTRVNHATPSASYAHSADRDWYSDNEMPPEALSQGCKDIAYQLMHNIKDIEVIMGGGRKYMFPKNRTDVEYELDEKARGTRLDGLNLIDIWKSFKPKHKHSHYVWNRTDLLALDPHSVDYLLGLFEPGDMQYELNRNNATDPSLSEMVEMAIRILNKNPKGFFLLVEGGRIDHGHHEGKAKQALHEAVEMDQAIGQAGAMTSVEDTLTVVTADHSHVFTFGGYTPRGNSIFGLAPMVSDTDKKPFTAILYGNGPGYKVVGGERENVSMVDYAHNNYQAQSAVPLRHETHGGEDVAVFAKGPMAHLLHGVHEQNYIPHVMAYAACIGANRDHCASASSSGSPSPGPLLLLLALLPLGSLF

[2] = molecular target: Intestinal-type alkaline phosphatase (Bos taurus) (UniProt P19111); assay: Inhibition of calf intestinal alkaline phosphatase at 0.2 mM using CDP-star as substrate preincubated for 5 to 7 mins followed by substrate addition measured after 15 mins by spectrophotometric method
[3] = molecular target: Intestinal-type alkaline phosphatase (Bos taurus, UniProt P19111); assay: Inhibition of calf intestinal alkaline phosphatase using CDP-star as substrate preincubated for 5 to 7 mins followed by substrate addition measured after 15 mins by spectrophotometric method
[4] = molecular target: T2, Alkaline phosphatase, tissue-nonspecific isozyme (Bos taurus) (UniProt P09487); assay: Inhibition of bovine TNAP at 0.2 mM using CDP-star as substrate preincubated for 5 to 7 mins followed by substrate addition measured after 15 mins by spectrophotometric method
T2 sequence (whole entry): T1 sequence (P09487 whole entry)

[5] = molecular target: Intestinal-type alkaline phosphatase (Bos taurus) (UniProt P19111); assay: Potency index, ratio of L-phenylalanine IC50 to test compound IC50 for calf intestinal alkaline phosphatase

Chain of Intestinal-type alkaline phosphatase (P19111 whole entry): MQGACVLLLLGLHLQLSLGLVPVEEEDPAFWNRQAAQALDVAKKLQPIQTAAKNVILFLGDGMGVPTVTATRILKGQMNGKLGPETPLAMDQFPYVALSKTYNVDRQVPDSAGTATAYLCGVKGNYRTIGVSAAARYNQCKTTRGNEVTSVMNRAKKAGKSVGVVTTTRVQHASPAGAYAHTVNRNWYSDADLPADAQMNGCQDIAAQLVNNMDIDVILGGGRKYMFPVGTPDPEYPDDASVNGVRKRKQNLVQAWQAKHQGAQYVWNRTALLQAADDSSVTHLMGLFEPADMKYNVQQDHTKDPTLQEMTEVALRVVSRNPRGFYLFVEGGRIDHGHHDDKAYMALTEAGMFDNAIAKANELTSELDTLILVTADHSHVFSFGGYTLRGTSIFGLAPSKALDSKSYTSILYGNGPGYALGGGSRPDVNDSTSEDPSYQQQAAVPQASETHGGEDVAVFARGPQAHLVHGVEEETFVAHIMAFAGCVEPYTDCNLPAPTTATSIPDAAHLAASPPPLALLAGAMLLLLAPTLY
Chain of Intestinal-type alkaline phosphatase (Bos taurus) (P19111 20-506 limits assumed): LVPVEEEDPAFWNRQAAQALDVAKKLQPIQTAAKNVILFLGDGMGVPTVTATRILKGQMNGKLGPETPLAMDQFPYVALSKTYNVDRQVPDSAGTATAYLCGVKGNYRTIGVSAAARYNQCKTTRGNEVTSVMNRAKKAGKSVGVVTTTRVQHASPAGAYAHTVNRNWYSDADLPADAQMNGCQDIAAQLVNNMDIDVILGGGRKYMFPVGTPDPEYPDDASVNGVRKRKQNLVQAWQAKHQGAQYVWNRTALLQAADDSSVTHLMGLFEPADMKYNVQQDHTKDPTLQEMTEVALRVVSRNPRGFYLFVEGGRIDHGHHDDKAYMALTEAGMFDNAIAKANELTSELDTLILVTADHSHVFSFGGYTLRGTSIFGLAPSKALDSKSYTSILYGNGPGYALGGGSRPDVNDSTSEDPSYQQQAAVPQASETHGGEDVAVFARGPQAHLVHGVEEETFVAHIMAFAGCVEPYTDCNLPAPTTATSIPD

| SMILES | IC50 [1] [µM] | inhibition [2] [%] | IC50 [3] [µM] | inhibition [4] [%] | Ratio IC50 [5] |
| --- | --- | --- | --- | --- | --- |
| CCCCCc1c(-c2ccc(C(F)(F)F)cc2)c(=O)c2cc([N+](=O)[O-])ccc2n1Cc1ccc(OC)cc1 | 38.5 | 48.6 |  |  |  |
| CCCCCc1[nH]c2ccc([N+](=O)[O-])cc2c(=O)c1Br | 17.2 |  | 3.06 |  |  |
| COc1ccc(C(C)n2c(-c3ccc(C)cc3)cc(=O)c3cc([N+](=O)[O-])ccc32)cc1 (stereo not drawn) | 17.9 |  | 4.75 |  |  |
| Cc1ccc(-c2[nH]c3ccc([N+](=O)[O-])cc3c(=O)c2Br)cc1 | 6.47 |  | 12.1 |  |  |
| Cc1ccc(-c2cc(=O)c3cc([N+](=O)[O-])ccc3[nH]2)cc1 | 2.56 |  | 6.25 |  |  |
| COc1ccc(Cn2c(-c3ccc(C)cc3)c(Br)c(=O)c3cc([N+](=O)[O-])ccc32)cc1 | 4.22 |  | 2.43 |  |  |
| Cc1ccc(-c2c(Br)c(=O)c3cc([N+](=O)[O-])ccc3n2C(C)c2ccccc2)cc1 (stereo not drawn) | 1.34 |  | 2.47 |  |  |
| COc1ccc(Cn2c(-c3ccc(C)cc3)c(C(F)(F)F)c(=O)c3cc([N+](=O)[O-])ccc32)cc1 | 4.53 |  | 4.58 |  |  |
| COc1ccc(Cn2c(-c3ccc(C)cc3)c(-c3cc(C)cc(C)c3)c(=O)c3cc([N+](=O)[O-])ccc32)cc1 | 4.74 |  | 28.7 |  |  |
| Cc1ccc(-c2[nH]c3ccc([N+](=O)[O-])cc3c(=O)c2-c2ccc(C(F)(F)F)cc2)cc1 | 2.69 |  | 4.38 |  |  |
| CCCCCc1cc(=O)c2cc([N+](=O)[O-])ccc2[nH]1 | 44.8 |  | 16.7 |  |  |
| CCc1ccc(-c2c(-c3ccc(C)cc3)n(Cc3ccc(OC)cc3)c3ccc([N+](=O)[O-])cc3c2=O)cc1 | 1.66 |  | 5.75 |  |  |
| COc1ccc(Cn2c(-c3ccc(C)cc3)c(-c3ccc(C(F)(F)F)cc3)c(=O)c3cc([N+](=O)[O-])ccc32)cc1 | 6.19 |  | 8.34 |  |  |
| COc1ccc(Cn2c(-c3ccc(C)cc3)c(-c3ccc(C)cc3)c(=O)c3cc(N)ccc32)cc1 | 15.1 | 38.7 |  |  |  |

The next lines start with the values.

| IC50 [1] [µM] | inhibition [2] [%] | IC50 [3] [µM] | inhibition [4] [%] | Ratio IC50 [5] | SMILES |
| --- | --- | --- | --- | --- | --- |
| 9.51 |  | 122 |  |  | CCCCCc1c(Br)c(=O)c2cc([N+](=O)[O-])ccc2n1Cc1ccc(OC)cc1 |
| 14.8 |  | 1.06 |  |  | COc1ccc(-c2c(-c3ccc(C)cc3)[nH]c3ccc(N)cc3c2=O)cc1 |
| 6.02 |  | 1.67 |  |  | Cc1ccc(-c2[nH]c3ccc(NC(=O)C(F)(F)F)cc3c(=O)c2-c2ccc(C)cc2)cc1 |
|  |  | 2.04 | 46.8 | 40 | COc1ccc(Cn2c(-c3ccc(C)cc3)c(-c3ccc(OC)cc3)c(=O)c3cc([N+](=O)[O-])ccc32)cc1 |
| 19.4 |  | 16.2 |  |  | Cc1ccc(-c2cc(=O)c3cc(N)ccc3[nH]2)cc1 |
| 1.51 |  | 1.38 |  |  | CCCCCc1cc(=O)c2cc([N+](=O)[O-])ccc2n1Cc1ccc(OC)cc1 |
| 133 | 48.6 |  |  |  | COc1ccc(Cn2c(-c3ccc(C)cc3)cc(=O)c3cc([N+](=O)[O-])ccc32)cc1 |
| 2.35 |  | 192 |  |  | COc1ccc(Cn2c(-c3ccc(C)cc3)c(-c3ccccc3C=O)c(=O)c3cc([N+](=O)[O-])ccc32)cc1 |
|  |  | 2.92 | 46.1 | 40 | COc1ccc(Cn2c(-c3ccc(C)cc3)c(-c3ccc(C)cc3)c(=O)c3cc([N+](=O)[O-])ccc32)cc1 |

Source: ChEMBL document CHEMBL4002568, “Synthesis, alkaline phosphatase inhibition studies and molecular docking of novel derivatives of 4-quinolones” (Eur J Med Chem, 2017)
